Measured values from ChEMBL document CHEMBL4350964, “Discovery of the theobromine derivative MQS-14 that induces death of MGC-803 cells mainly through ROS-mediated mechanisms” (Eur J Med Chem, 2019).
The source made the active and inactive calls. No cut-off for these calls is given here.

What was measured:
MGC-803 [1] = experiment: Cytotoxicity against human MGC803 cells assessed as growth inhibition at 20 uM after 48 hrs by MTT assay relative to control; type: functional; conditions: MGC-803, 48 h
MGC-803 [2] = experiment: Cytotoxicity in human MGC803 cells assessed as cell viability at 6 uM after 24 hrs by MTT assay relative to control; type: functional; conditions: MGC-803, 24 h, read-out: Activity
[3] = Selectivity ratio of IC50 for human GES-1 cells to IC50 for human MGC803 cells; type: toxicity; conditions: GES-1 cells and MGC803 cells, read-out: Ratio IC50
MGC-803 [4] = experiment: Induction of apoptosis in human MGC803 cells assessed as necrotic cells at 3 uM after 24 hrs by Annexin-V-FITC/propidium iodide staining based flow cytometry (reference value: 1.5%); type: functional
MGC-803 [5] = experiment: Induction of apoptosis in human MGC803 cells assessed as late apoptotic cells at 9 uM after 24 hrs by Annexin-V-FITC/propidium iodide staining based flow cytometry (reference value: 1.8%); type: functional
MGC-803 [6] = experiment: Induction of DNA damage in human MGC803 cells assessed as formation of DNA long tailing at 6 uM by comet assay; type: functional, cell-based
MGC-803 [7] = experiment: Induction of apoptosis in human MGC803 cells assessed as viable cells at 9 uM after 24 hrs by Annexin-V-FITC/propidium iodide staining based flow cytometry (reference value: 90.4%); type: functional; conditions: MGC-803, 24 h, read-out: Activity
MGC-803 [8] = experiment: Induction of apoptosis in human MGC803 cells assessed as early apoptotic cells at 9 uM after 24 hrs by Annexin-V-FITC/propidium iodide staining based flow cytometry (reference value: 6.4%); type: functional
MGC-803 [9] = experiment: Induction of apoptosis in human MGC803 cells assessed as increase in cleaved PARP expression up to 9 uM after 24 hrs by Western blot analysis; type: functional, cell-based
MGC-803 [10] = experiment: Induction of apoptosis in human MGC803 cells assessed as increase in cleaved caspase-9 expression up to 9 uM after 24 hrs by Western blot analysis; type: functional, cell-based
MGC-803 [11] = experiment: Induction of apoptosis in human MGC803 cells assessed as increase in cleaved caspase-7 expression up to 9 uM after 24 hrs by Western blot analysis; type: functional, cell-based
MGC-803 [12] = experiment: Induction of apoptosis in human MGC803 cells assessed as necrotic cells at 9 uM after 24 hrs by Annexin-V-FITC/propidium iodide staining based flow cytometry (reference value: 1.5%); type: functional
MGC-803 [13] = experiment: Induction of apoptosis in human MGC803 cells assessed as necrotic cells at 6 uM after 24 hrs by Annexin-V-FITC/propidium iodide staining based flow cytometry (reference value: 1.5%); type: functional
MGC-803 [14] = experiment: Induction of apoptosis in human MGC803 cells assessed as early apoptotic cells at 3 uM after 24 hrs by Annexin-V-FITC/propidium iodide staining based flow cytometry (reference value: 6.4%); type: functional
MGC-803 [15] = experiment: Antiproliferative activity against human MGC803 cells assessed as inhibition of cell proliferation preincubated for 16 hrs followed by Edu addition and measured after 8 hrs by Hoechst 33342 staining-based confocal laser scanning microscopic analysis; type: functional
MGC-803 [16] = experiment: Effect on Cleaved caspase-7 level in human MGC803 cells assessed decrease in cleaved caspase-7 expression at 6 uM after 24 hrs in presence of NAC by Western blot analysis; type: functional, cell-based
MGC-803 [17] = experiment: Effect on Cleaved PARP level in human MGC803 cells assessed decrease in cleaved PARP expression at 6 uM after 24 hrs in presence of NAC by Western blot analysis; type: functional, cell-based
MGC-803 [18] = experiment: Induction of apoptosis in human MGC803 cells assessed as viable cells at 3 uM after 24 hrs by Annexin-V-FITC/propidium iodide staining based flow cytometry (reference value: 90.4%); type: functional; conditions: MGC-803, 24 h, read-out: Activity
Homo sapiens [19] = species: Homo sapiens; experiment: Activation of MAPK signalling in human MGC803 cells assessed as decrease in ERK phosphorylation at 3 to 6 uM after 24 hrs by Western blot analysis; type: cell-based
MGC-803 [20] = experiment: Induction of apoptosis in human MGC803 cells assessed as increase in cleaved caspase-3 expression up to 9 uM after 24 hrs by Western blot analysis; type: functional, cell-based
MGC-803 [21] = experiment: Induction of ROS generation in human MGC803 cells after 24 hrs by DCFH-DA dye based flow cytometry; type: functional, cell-based
Homo sapiens [22] = species: Homo sapiens; experiment: Activation of MAPK signalling in human MGC803 cells assessed as change in p38 phosphorylation at 3 to 6 uM after 24 hrs by Western blot analysis; type: cell-based
MGC-803 [23] = experiment: Induction of DNA damage in human MGC803 cells assessed as formation of DNA long tailing at 6 uM in presence of NAC by comet assay; type: functional, cell-based
MGC-803 [24] = experiment: Cytotoxicity against human MGC803 cells assessed as reduction in cell viability by MTT assay; type: functional, cell-based
MGC-803 [25] = experiment: Induction of apoptosis in human MGC803 cells assessed as late apoptotic cells at 3 uM after 24 hrs by Annexin-V-FITC/propidium iodide staining based flow cytometry (reference value: 1.8%); type: functional
MGC-803 [26] = experiment: Cytotoxicity against human MGC803 cells assessed as reduction in cell viability at 6 uM after 24 hrs in presence of ROS scavenger N-acetyl-L-cysteine by MTT assay; type: functional, cell-based
MGC-803 [27] = experiment: Induction of apoptosis in human MGC803 cells assessed as viable cells at 6 uM after 24 hrs by Annexin-V-FITC/propidium iodide staining based flow cytometry (reference value: 90.4%); type: functional; conditions: MGC-803, 24 h, read-out: Activity
MGC-803 [28] = experiment: Antiproliferative activity against human MGC803 cells assessed as inhibition of cell division measured after 24 hrs by CFDA-SE staining based flow cytometric analysis; type: functional
MGC-803 [29] = experiment: Induction of apoptosis in human MGC803 cells assessed as early apoptotic cells at 6 uM after 24 hrs by Annexin-V-FITC/propidium iodide staining based flow cytometry (reference value: 6.4%); type: functional
Homo sapiens [30] = species: Homo sapiens; experiment: Activation of MAPK signalling in human MGC803 cells assessed as increase in JNK phosphorylation at 3 to 6 uM after 24 hrs by Western blot analysis; type: cell-based
HGC-27 = experiment: Cytotoxicity against human HGC27 cells assessed as reduction in cell viability by MTT assay; type: functional, cell-based
Homo sapiens [31] = species: Homo sapiens; experiment: Activation of MAPK signalling in human MGC803 cells assessed as decrease in ERK phosphorylation measured after 24 hrs in presence of NAC by Western blot analysis; type: cell-based
Homo sapiens [32] = species: Homo sapiens; experiment: Activation of MAPK signalling in human MGC803 cells assessed as increase in JNK phosphorylation at 6 uM measured after 24 hrs in presence of NAC by Western blot analysis; type: cell-based
MGC-803 [33] = experiment: Cytotoxicity in human MGC803 cells assessed as cell viability at 6 uM pretreated with pan-caspase inhibitor Z-VAD-fmk for 1 hr followed by compound addition and measured after 24 hrs by MTT assay relative to control; type: functional; conditions: read-out: Activity
SGC-7901 = experiment: Cytotoxicity against human SGC7901 cells assessed as reduction in cell viability by MTT assay; type: functional, cell-based
MGC-803 [34] = experiment: Induction of apoptosis in human MGC803 cells assessed as late apoptotic cells at 6 uM after 24 hrs by Annexin-V-FITC/propidium iodide staining based flow cytometry (reference value: 1.8%); type: functional
MGC-803 [35] = experiment: Effect on Cleaved caspase-9 level in human MGC803 cells assessed decrease in cleaved caspase-9 expression at 6 uM after 24 hrs in presence of NAC by Western blot analysis; type: functional, cell-based
GES1 = experiment: Cytotoxicity against human GES-1 cells assessed as reduction in cell viability by MTT assay; type: cell-based
MGC-803 [36] = experiment: Induction of mitochondrial dysfunction in human MGC803 cells assessed as reduction in mitochondrial potential at 3 to 9 uM after 24 hrs by JC-1 staining based flow cytometry; type: functional, cell-based

Cn1cnc2c1c(=O)n(CC(=O)N1CCSCC1)c(=O)n2C
inhibition at 20 µM (MGC-803 [1]): 5.6%

Cn1cnc2c1c(=O)n(CC(=O)N1CCC(N3CCCCC3)CC1)c(=O)n2C
inhibition at 20 µM (MGC-803 [1]): 19.8%

Cn1cnc2c1c(=O)n(CC(=O)N1CCOCC1)c(=O)n2C
inhibition at 20 µM (MGC-803 [1]): 19.9%

Cn1cnc2c1c(=O)n(CC(=O)N1CCN(c3ccccc3)CC1)c(=O)n2C
inhibition at 20 µM (MGC-803 [1]): 4.6%

Cn1cnc2c1c(=O)n(CC(=O)OC(C)(C)C)c(=O)n2C
inhibition at 20 µM (MGC-803 [1]): 17.2%

C#CCN1CCN(C(=O)Cn2c(=O)c3c(ncn3C)n(C)c2=O)CC1
inhibition at 20 µM (MGC-803 [1]): 14.1%

CCCn1c(SCc2ccccc2C)nc2c1c(=O)[nH]c(=O)n2C
viability at 6 µM (MGC-803 [2]): 66%
selectivity ratio [3]: 2 to 3
Activity (MGC-803 [4]): 1.5%
Activity (MGC-803 [5]): 32%
Activity (MGC-803 [6]): Active
viability at 9 µM (MGC-803 [7]): 23.1%
Activity (MGC-803 [8]): 44%
Activity (MGC-803 [9]): Active
Activity (MGC-803 [10]): Active
Activity (MGC-803 [11]): Active
Activity (MGC-803 [12]): 0.9%
Activity (MGC-803 [13]): 0.7%
Activity (MGC-803 [14]): 25.4%
inhibition (MGC-803 [15]): Dose-dependent effect
inhibition at 20 µM (MGC-803 [1]): 88.6%
Activity (MGC-803 [16]): Active
Activity (MGC-803 [17]): Active
viability at 3 µM (MGC-803 [18]): 71.5%
Activity (Homo sapiens [19]): Dose-dependent effect
Activity (MGC-803 [20]): Active
Activity (MGC-803 [21]): Dose-dependent effect
Activity (Homo sapiens [22]): Active
Activity (MGC-803 [23]): inactive
IC50 (MGC-803 [24]): 6.6 µM
Activity (MGC-803 [25]): 1.7%
Activity (MGC-803 [26]): inactive
viability at 6 µM (MGC-803 [27]): 55%
inhibition (MGC-803 [28]): Dose-dependent effect
Activity (MGC-803 [29]): 41.9%
Activity (Homo sapiens [30]): Active
IC50 (HGC-27): 9.1 µM
Activity (Homo sapiens [31]): inactive
Activity (Homo sapiens [32]): inactive
viability at 6 µM (MGC-803 [33]): 93%
IC50 (SGC-7901): 15 µM
Activity (MGC-803 [34]): 2.4%
Activity (MGC-803 [35]): Active
IC50 (GES1): 13 µM
Activity (MGC-803 [36]): Dose-dependent effect

Cn1cnc2c1c(=O)n(CC(=O)N1CCN(C(=O)OC(C)(C)C)CC1)c(=O)n2C
inhibition at 20 µM (MGC-803 [1]): 20%

CCCn1c(SCc2cccc(C)c2)nc2c1c(=O)[nH]c(=O)n2C
selectivity ratio [3]: 2 to 3
inhibition at 20 µM (MGC-803 [1]): 84.1%
IC50 (MGC-803 [24]): 7.2 µM
IC50 (HGC-27): 10 µM
IC50 (SGC-7901): 16 µM
IC50 (GES1): 16 µM

CCCn1c(SCc2ccc(F)cc2)nc2c1c(=O)[nH]c(=O)n2C
selectivity ratio [3]: 2 to 3
inhibition at 20 µM (MGC-803 [1]): 86.5%
IC50 (MGC-803 [24]): 5.4 µM
IC50 (HGC-27): 9.7 µM
IC50 (SGC-7901): 15 µM
IC50 (GES1): 14 µM

Cn1cnc2c1c(=O)n(CC(=O)N1CCC(F)(F)CC1)c(=O)n2C
inhibition at 20 µM (MGC-803 [1]): 11.3%

Cn1cnc2c1c(=O)n(CC(=O)O)c(=O)n2C
inhibition at 20 µM (MGC-803 [1]): 0.8%

Cc1ccc(S(=O)(=O)N2CCN(C(=O)Cn3c(=O)c4c(ncn4C)n(C)c3=O)CC2)cc1
inhibition at 20 µM (MGC-803 [1]): 20.1%

C=CCSc1nc2c(c(=O)[nH]c(=O)n2C)n1CCC
inhibition at 20 µM (MGC-803 [1]): 5.5%

CCCn1c(SCc2ccc(C(C)(C)C)cc2)nc2c1c(=O)[nH]c(=O)n2C
inhibition at 20 µM (MGC-803 [1]): 10.3%

Cn1cnc2c1c(=O)n(CC(=O)N1CCN(Cc3ccc(Cl)cc3)CC1)c(=O)n2C
inhibition at 20 µM (MGC-803 [1]): 22.5%

C=CC(=O)N1CCN(C(=O)Cn2c(=O)c3c(ncn3C)n(C)c2=O)CC1
inhibition at 20 µM (MGC-803 [1]): 1.3%

O=c1[nH]cc(F)c(=O)[nH]1 [FLUOROURACIL]
IC50 (MGC-803 [24]): 14 µM
IC50 (HGC-27): 18 µM
IC50 (SGC-7901): 21 µM

CCCn1c(SCC(=O)Nc2ccc(C)cc2)nc2c1c(=O)[nH]c(=O)n2C
inhibition at 20 µM (MGC-803 [1]): 42.2%

CCCn1c(SCc2cccc(OC)c2)nc2c1c(=O)[nH]c(=O)n2C
inhibition at 20 µM (MGC-803 [1]): 34.2%

Cn1cnc2c1c(=O)n(CC(=O)N1CCCCC1)c(=O)n2C
inhibition at 20 µM (MGC-803 [1]): 16.8%

Cn1cnc2c1c(=O)n(CC(=O)N1CCN(C(=O)/C=C/c3ccccc3)CC1)c(=O)n2C
inhibition at 20 µM (MGC-803 [1]): 9.5%

CN1CCN(C(=O)Cn2c(=O)c3c(ncn3C)n(C)c2=O)CC1
inhibition at 20 µM (MGC-803 [1]): 8.6%

CCCn1c(SCc2ccc([N+](=O)[O-])cc2)nc2c1c(=O)[nH]c(=O)n2C
inhibition at 20 µM (MGC-803 [1]): 19.8%
